Test results reported in the NIST ThermoML archive (doi:10.1016/j.jct.2018.03.016).

Details: Liquid; for mass density: Vibrating tube method; for speed of sound: Frequency=5 MHz, Single path-length method

CCC(=O)[O-].[NH3+]CCO [2-hydroxyethan-1-aminium propionate]
Details	mass density [kg/m3]	speed of sound [m/s]
298.08 K, 10000 kPa	1124.9	–
298.1 K, 30000 kPa	1131.1	–
298.11 K, 15000 kPa	1127.6	–
298.13 K, 35000 kPa	1132.5	–
298.15 K, 20000 kPa	1128.2	–
298.15 K, 25000 kPa	1129.4	–
298.16 K, 100 kPa	1121.1	–
303.03 K, 30000 kPa	1126.3	–
303.07 K, 25000 kPa	1124.9	–
303.07 K, 35000 kPa	1127.2	–
303.09 K, 10000 kPa	1121	–
303.09 K, 15000 kPa	1121.8	–
303.1 K, 20000 kPa	1123.3	–
303.15 K, 100 kPa	1116	1554.7
303.15 K, 1000 kPa	–	1558.7
303.15 K, 2000 kPa	–	1562.7
303.15 K, 3000 kPa	–	1566.7
303.15 K, 4000 kPa	–	1570.7
303.15 K, 5000 kPa	–	1574.7
303.15 K, 6000 kPa	–	1578.8
303.15 K, 7000 kPa	–	1582.9
303.15 K, 8000 kPa	–	1587
303.15 K, 9000 kPa	–	1591.1
303.15 K, 10000 kPa	–	1595.2
303.15 K, 11000 kPa	–	1599.4
303.15 K, 12000 kPa	–	1602.1
303.15 K, 13000 kPa	–	1606.3
303.15 K, 14000 kPa	–	1610.5
303.15 K, 15000 kPa	–	1613.3
303.15 K, 16000 kPa	–	1617.6
303.15 K, 17000 kPa	–	1620.4
303.15 K, 18000 kPa	–	1624.6
303.15 K, 19000 kPa	–	1628.9
303.15 K, 20000 kPa	–	1633.2
313.14 K, 100 kPa	1105.3	–
313.15 K, 100 kPa	–	1526.8
313.15 K, 1000 kPa	–	1531.9
313.15 K, 2000 kPa	–	1535.7
313.15 K, 3000 kPa	–	1539.5
313.15 K, 4000 kPa	–	1542.1
313.15 K, 5000 kPa	–	1546
313.15 K, 6000 kPa	–	1549.9
313.15 K, 7000 kPa	–	1553.8
313.15 K, 8000 kPa	–	1557.8
313.15 K, 9000 kPa	–	1561.7
313.15 K, 10000 kPa	–	1565.7
313.15 K, 11000 kPa	–	1569.7
313.15 K, 12000 kPa	–	1573.7
313.15 K, 13000 kPa	–	1577.7
313.15 K, 14000 kPa	–	1581.7
313.15 K, 15000 kPa	–	1585.8
313.15 K, 16000 kPa	–	1589.9
313.15 K, 17000 kPa	–	1594
313.15 K, 18000 kPa	–	1598.1
313.15 K, 19000 kPa	–	1602.2
313.15 K, 20000 kPa	–	1606.4
313.16 K, 15000 kPa	1111.3	–
313.17 K, 10000 kPa	1110.2	–
313.17 K, 35000 kPa	1117.8	–
313.18 K, 20000 kPa	1113.3	–
313.18 K, 30000 kPa	1116.2	–
313.19 K, 25000 kPa	1114.8	–
323.09 K, 10000 kPa	1098.3	–
323.1 K, 100 kPa	1093	–
323.1 K, 25000 kPa	1103.9	–
323.12 K, 30000 kPa	1105.5	–
323.14 K, 15000 kPa	1099.7	–
323.14 K, 20000 kPa	1102	–
323.14 K, 35000 kPa	1107.3	–
323.15 K, 100 kPa	–	1506.1
323.15 K, 1000 kPa	–	1509.8
323.15 K, 2000 kPa	–	1513.6
323.15 K, 3000 kPa	–	1517.3
323.15 K, 4000 kPa	–	1521.1
323.15 K, 5000 kPa	–	1524.9
323.15 K, 6000 kPa	–	1528.7
323.15 K, 7000 kPa	–	1533.8
323.15 K, 8000 kPa	–	1537.6
323.15 K, 9000 kPa	–	1541.5
323.15 K, 10000 kPa	–	1545.4
323.15 K, 11000 kPa	–	1549.2
323.15 K, 12000 kPa	–	1553.2
323.15 K, 13000 kPa	–	1558.4
323.15 K, 14000 kPa	–	1562.3
323.15 K, 15000 kPa	–	1566.3
323.15 K, 16000 kPa	–	1568.9
323.15 K, 17000 kPa	–	1572.9
323.15 K, 18000 kPa	–	1576.9
323.15 K, 19000 kPa	–	1581
323.15 K, 20000 kPa	–	1585
333.08 K, 35000 kPa	1096.1	–
333.09 K, 10000 kPa	1084.9	–
333.09 K, 15000 kPa	1087.4	–
333.09 K, 25000 kPa	1091.8	–
333.09 K, 30000 kPa	1093.9	–
333.1 K, 20000 kPa	1089.7	–
333.12 K, 100 kPa	1079.6	–
333.15 K, 100 kPa	–	1474.9
333.15 K, 1000 kPa	–	1479.7
333.15 K, 2000 kPa	–	1484.6
333.15 K, 3000 kPa	–	1488.3
333.15 K, 4000 kPa	–	1493.2
333.15 K, 5000 kPa	–	1497
333.15 K, 6000 kPa	–	1501.9
333.15 K, 7000 kPa	–	1505.7
333.15 K, 8000 kPa	–	1509.5
333.15 K, 9000 kPa	–	1514.5
333.15 K, 10000 kPa	–	1518.3
333.15 K, 11000 kPa	–	1523.3
333.15 K, 12000 kPa	–	1527.2
333.15 K, 13000 kPa	–	1531
333.15 K, 14000 kPa	–	1534.9
333.15 K, 15000 kPa	–	1540
333.15 K, 16000 kPa	–	1543.8
333.15 K, 17000 kPa	–	1547.7
333.15 K, 18000 kPa	–	1551.6
333.15 K, 19000 kPa	–	1555.5
333.15 K, 20000 kPa	–	1559.5
343.15 K, 100 kPa	–	1449.3
343.15 K, 1000 kPa	–	1453
343.15 K, 2000 kPa	–	1456.8
343.15 K, 3000 kPa	–	1461.8
343.15 K, 4000 kPa	–	1466.7
343.15 K, 5000 kPa	–	1471.7
343.15 K, 6000 kPa	–	1475.5
343.15 K, 7000 kPa	–	1480.5
343.15 K, 8000 kPa	–	1485.5
343.15 K, 9000 kPa	–	1489.3
343.15 K, 10000 kPa	–	1494.3
343.15 K, 11000 kPa	–	1499.4
343.15 K, 12000 kPa	–	1503.2
343.15 K, 13000 kPa	–	1508.2
343.15 K, 14000 kPa	–	1513.3
343.15 K, 15000 kPa	–	1517.2
343.15 K, 16000 kPa	–	1522.2
343.15 K, 17000 kPa	–	1526.1
343.15 K, 18000 kPa	–	1530
343.15 K, 19000 kPa	–	1533.8
343.15 K, 20000 kPa	–	1537.7
343.17 K, 100 kPa	1066	–
343.17 K, 20000 kPa	1076.6	–
343.17 K, 25000 kPa	1079	–
343.17 K, 30000 kPa	1081.8	–
343.18 K, 15000 kPa	1074.3	–
343.18 K, 35000 kPa	1084.1	–
343.19 K, 10000 kPa	1070.6	–
353.15 K, 100 kPa	–	1416
353.15 K, 1000 kPa	–	1421
353.15 K, 2000 kPa	–	1426.1
353.15 K, 3000 kPa	–	1431.2
353.15 K, 4000 kPa	–	1436.3
353.15 K, 5000 kPa	–	1441.4
353.15 K, 6000 kPa	–	1446.5
353.15 K, 7000 kPa	–	1451.7
353.15 K, 8000 kPa	–	1456.8
353.15 K, 9000 kPa	–	1463.1
353.15 K, 10000 kPa	–	1467
353.15 K, 11000 kPa	–	1473.3
353.15 K, 12000 kPa	–	1478.4
353.15 K, 13000 kPa	–	1482.4
353.15 K, 14000 kPa	–	1487.5
353.15 K, 15000 kPa	–	1492.6
353.15 K, 16000 kPa	–	1496.5
353.15 K, 17000 kPa	–	1500.4
353.15 K, 18000 kPa	–	1504.4
353.15 K, 19000 kPa	–	1509.5
353.15 K, 20000 kPa	–	1513.3
